One test concerns the target GDP-loaded KRAS G12D (Homo sapiens (Human), UniProt P01116, G12D). Description: KRAS G12D (GDP) biochemical assay (TR-FRET probe displacement). The format is binding. The conditions noted are these: 2 hours. An outline of the steps: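 Compound pre-incubated 30 min with GDP-loaded KRAS G12D in 50 mM Hepes pH 7.4, 150 mM NaCl, 5 mM MgCl2, 0.005% Tween-20, then Eu-streptavidin and TR-FRET probe added. After 2 h at room temperature, TR-FRET ratio read; IC50 is 50% ratio decrease, sigmoidal fit.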

A further test relates to AsPC-1 (KRAS G12D) cells. As to the kind of experiment: 3D cell viability assay (spheroids, CellTiter-Glo 3D). The class given is cell-based. The conditions noted are these: AsPC-1 cells, 3D spheroids, 4 days. In short, it runs like this:
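AsPC-1 cells (1000/well) in DMEM with 10% FBS formed spheroids over 3 days at 37 °C in ultra-low attachment plates, then were treated with 1:3 serial dilutions for 4 days. Viability read by CellTiter-Glo 3D luminescence; EC50 as concentration giving 50% signal decrease, sigmoidal fit.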
In general terms: Cellular ATP, detected with luciferase, serves as a proxy for viable cell number.

The subject of the next test is GP2D (KRAS G12D) cells. Description: 2D cell viability assay (CellTiter-Glo). The format is cell-based. The conditions noted are these: 4 days. In short, it runs like this: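 GP2D (KRAS G12D) cells, 1000/well in RPMI + 10% FBS, were plated onto compound (1:3 DMSO series) and grown 4 days at 37 °C, 5% CO2 in 2D. CellTiter-Glo luminescence was read; EC50 is the concentration giving 50% signal decrease, from sigmoidal fit.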

The structures appear in SMILES notation. pEC50, pIC50: −log10 of the molar value. Where only a bound is given, the exact number is not on record here.

Sequence of GDP-loaded KRAS G12D (P01116-2 other isoform, or with tags, fused parts or gaps G12D): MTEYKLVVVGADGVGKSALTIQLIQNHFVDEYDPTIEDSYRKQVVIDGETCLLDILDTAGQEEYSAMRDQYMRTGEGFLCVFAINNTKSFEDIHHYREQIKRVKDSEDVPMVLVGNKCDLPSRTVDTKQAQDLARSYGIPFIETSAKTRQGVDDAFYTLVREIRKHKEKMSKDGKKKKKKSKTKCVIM

`C#Cc1c(F)ccc2cccc(-c3nc4c5c(nc(OC[C@@]67CCCN6[C@H](COC(C)(C)C)CC7)nc5c3F)N3C[C@H]5CC[C@H](N5)[C@H]3CC4)c12` [Example 119, (5aR,6S,9R)-12-(((3S,7aS)-3-(tert-butoxymethyl)tetrahydro-1H-pyrrolizin-7a(5H)-yl)methoxy)-2-(8-ethynyl-7-fluoronaphthalen-1-yl)-1-fluoro-4,5,5a,6,7,8,9,10-octahydro-3,10a,11,13,14-pentaaza-6,9-methanonaphtho[1,8-ab]heptalene] gave a pIC50 at GDP-loaded KRAS G12D of 8.62. Besides, the negative logarithm of the EC50 (pEC50) in the test on AsPC-1 (KRAS G12D) cells (Homo sapiens, ASPC1, 96 h) was 6.41; with GP2D (KRAS G12D) cells (GP2d, 96 h), 6.90.

`C#Cc1c(F)ccc2cc(O)cc(-c3nc4c5c(nc(OC[C@@]67CCCN6C[C@@]6(CC6(F)F)C7)nc5c3F)N3C[C@H]5CC[C@H](N5)[C@H]3CC4)c12` [Example 122, 4-((5aR,6S,9R)-12-(((1S,7a'S)-2,2-difluorodihydro-1′H,3′H-spiro[cyclopropane-1,2′-pyrrolizin]-7a′(5′H)-yl)methoxy)-1-fluoro-4,5,5a,6,7,8,9,10-octahydro-3,10a,11,13,14-pentaaza[6,9]methanonaphtho[1,8-ab]heptalen-2-yl)-5-ethynyl-6-fluoronaphthalen-2-ol]: the pIC50 on GDP-loaded KRAS G12D is greater than 10.00. Moreover, the negative logarithm of the EC50 (pEC50) in the test with AsPC-1 (KRAS G12D) cells (Homo sapiens, ASPC1, 96 h) was 8.54; in the test on GP2D (KRAS G12D) cells (GP2d, 96 h), 10.00.

Consider `C#Cc1c(F)ccc2cc(O)cc(-c3nc4c5c(nc(OC[C@@]67CCCN6C[C@H](F)C7)nc5c3F)N3C[C@H]5CC[C@H](N5)[C@H]3CCO4)c12` [Example 123, 5-ethynyl-6-fluoro-4-((6aR,7S,10R)-1-fluoro-13-(((2R,7aS)-2-fluorotetrahydro-1H-pyrrolizin-7a(5H)-yl)methoxy)-5,6,6a,7,8,9,10,11-octahydro-4-oxa-3,11a,12,14,15-pentaaza-7,10-methanocyclohepta[4,5]cycloocta[1,2,3-de]naphthalen-2-yl)naphthalen-2-ol], for which, at GDP-loaded KRAS G12D, the pIC50 was greater than 10.00. Besides, the pEC50 is 8.52 in the test with AsPC-1 (KRAS G12D) cells (Homo sapiens, ASPC1, 96 h) and 9.30 in the test on GP2D (KRAS G12D) cells (GP2d, 96 h).

`C#Cc1c(F)ccc2cccc(-c3nc4c5c(nc(OC[C@@]67CCCN6C[C@H](F)C7)nc5c3F)N3C[C@H]5CC[C@H](N5)[C@H]3CCO4)c12` [Example 124, (6aR,7S,10R)-2-(8-ethynyl-7-fluoronaphthalen-1-yl)-1-fluoro-13-(((2R,7aS)-2-fluorotetrahydro-1H-pyrrolizin-7a(5H)-yl)methoxy)-5,6,6a,7,8,9,10,11-octahydro-4-oxa-3,11a,12,14,15-pentaaza-7,10-methanocyclohepta[4,5]cycloocta[1,2,3-de]naphthalene] had a pIC50 on GDP-loaded KRAS G12D of 9.30. For the same compound, the negative-log EC50 (pEC50) in the test on AsPC-1 (KRAS G12D) cells (Homo sapiens, ASPC1, 96 h) was 7.09; in the test on GP2D (KRAS G12D) cells (GP2d, 96 h) it was 7.59.

Compound `CCc1c(F)ccc2cc(O)cc(-c3cc4c5c(nc(OC[C@@]67CCCN6C[C@H](F)C7)nc5c3F)N3C[C@H]5CC[C@H](N5)[C@H]3CC4)c12` [Example 128, 5-ethyl-6-fluoro-4-((1S,4R,14aR)-10-fluoro-8-(((2R,7aS)-2-fluorotetrahydro-1H-pyrrolizin-7a(5H)-yl)methoxy)-1,2,3,4,5,13,14,14a-octahydro-1,4-epiminoazepino[1′,2′:1,7]azepino[2,3,4-de]quinazolin-11-yl)naphthalen-2-ol] gave a negative logarithm of the IC50 (pIC50) at GDP-loaded KRAS G12D of 9.70. Further, the pEC50 was 7.23 with AsPC-1 (KRAS G12D) cells (Homo sapiens, ASPC1, 96 h) and 8.39 in the test with GP2D (KRAS G12D) cells (GP2d, 96 h).

The compound `C#Cc1c(F)ccc2cc(O)cc(-c3nc4c5c(nc(OC[C@@]67CCCN6C[C@H](F)C7)nc5c3F)N3C[C@H]5CC[C@H](N5)[C@@H]3CCC4)c12` [Example 132, 5-ethynyl-6-fluoro-4-((6aS,7S,10R)-1-fluoro-13-(((2R,7aS)-2-fluorotetrahydro-1H-pyrrolizin-7a(5H)-yl)methoxy)-5,6,6a,7,8,9,10,11-octahydro-4H-3,11a,12,14,15-pentaaza-7,10-methanocyclohepta[4,5]cycloocta[1,2,3-de]naphthalen-2-yl)naphthalen-2-ol] gave a pIC50 on GDP-loaded KRAS G12D of 9.70. In addition, the pEC50 with AsPC-1 (KRAS G12D) cells (Homo sapiens, ASPC1, 96 h) is 7.30; in the test with GP2D (KRAS G12D) cells (GP2d, 96 h) it was 8.66.

As for `C#Cc1c(F)ccc2cc(O)cc(-c3nc4c5c(nc(OC[C@@]67CCCN6CC(OC(F)(F)F)C7)nc5c3F)N3C[C@H]5CC[C@H](N5)[C@H]3CC4)c12` (stereo partly drawn) [Example 139, 5-ethynyl-6-fluoro-4-((5aR,6S,9R)-1-fluoro-12-((cis-2-(trifluoromethoxy)tetrahydro-1H-pyrrolizin-7a(5H)-yl)methoxy)-4,5,5a,6,7,8,9,10-octahydro-3,10a,11,13,14-pentaaza-6,9-methanonaphtho[1,8-ab]heptalen-2-yl)naphthalen-2-ol], the pIC50 on GDP-loaded KRAS G12D is 10.00. Further, the negative-log EC50 (pEC50) with AsPC-1 (KRAS G12D) cells (Homo sapiens, ASPC1, 96 h) is 8.38; in the test with GP2D (KRAS G12D) cells (GP2d, 96 h) it was 9.22.

`C#Cc1c(F)ccc2cc(O)cc(-c3nc4c5c(nc(OCC6(CN7CCC(COC(C(F)(F)F)(C(F)(F)F)C(F)(F)F)CC7)CC6)nc5c3F)N3C[C@H]5CC[C@H](N5)[C@H]3CC4)c12` [Example 143, 5-ethynyl-6-fluoro-4-((5aR,6S,9R)-1-fluoro-12-((1-((4-(((1,1,1,3,3,3-hexafluoro-2-(trifluoromethyl)propan-2-yl)oxy)methyl)piperidin-1-yl)methyl)cyclopropyl)methoxy)-4,5,5a,6,7,8,9,10-octahydro-3,10a,11,13,14-pentaaza-6,9-methanonaphtho[1,8-ab]heptalen-2-yl)naphthalen-2-ol] showed a pIC50 at GDP-loaded KRAS G12D of 8.72. Further, the pEC50 was 6.96 in the test with AsPC-1 (KRAS G12D) cells (Homo sapiens, ASPC1, 96 h) and 8.51 in the test with GP2D (KRAS G12D) cells (GP2d, 96 h).

With `C#Cc1c(F)ccc2cc(O)cc(-c3nc4c5c(nc(OC[C@@]67CCCN6[C@H](COC(C6CC6)C(F)(F)F)CC7)nc5c3F)N3C[C@H]5CC[C@H](N5)[C@H]3CC4)c12` (stereo partly drawn) [Example 147, 4-((5aR,6S,9R)-12-(((3S,7aS)-3-((1-cyclopropyl-2,2,2-trifluoroethoxy)methyl)tetrahydro-1H-pyrrolizin-7a(5H)-yl)methoxy)-1-fluoro-4,5,5a,6,7,8,9,1O-octahydro-3,10a,11,13,14-pentaaza-6,9-methanonaphtho[1,8-ab]heptalen-2-yl)-5-ethynyl-6-fluoronaphthalen-2-ol], the negative-log IC50 (pIC50) at GDP-loaded KRAS G12D is greater than 10.00. Moreover, the values for the negative-log EC50 (pEC50) in the test with AsPC-1 (KRAS G12D) cells and in the test on GP2D (KRAS G12D) cells were 7.72 and 8.89, respectively.

On to `C#Cc1c(F)ccc2cc(O)cc(-c3nc4c5c(nc(OC[C@@]67CCCN6[C@H](COc6ccnc(C(F)(F)F)n6)CC7)nc5c3F)N3C[C@H]5CC[C@H](N5)[C@H]3CC4)c12` [Example 148, 5-ethynyl-6-fluoro-4-((5aR,6S,9R)-1-fluoro-12-(((3S,7aS)-3-(((2-(trifluoromethyl)pyrimidin-4-yl)oxy)methyl)tetrahydro-1H-pyrrolizin-7a(5H)-yl)methoxy)-4,5,5a,6,7,8,9,1O-octahydro-3,10a,11,13,14-pentaaza-6,9-methanonaphtho[1,8-ab]heptalen-2-yl)naphthalen-2-ol], for which the negative-log IC50 (pIC50) on GDP-loaded KRAS G12D is 10.00. For the same compound, the pEC50 in the test on AsPC-1 (KRAS G12D) cells (Homo sapiens, ASPC1, 96 h) was 8.11; in the test with GP2D (KRAS G12D) cells (GP2d, 96 h) it was 9.15.

Compound `C#Cc1c(F)ccc2cc(O)cc(-c3nc4c5c(nc(OC[C@@]67CCCN6[C@H](COc6cnc(C(F)(F)F)cn6)CC7)nc5c3F)N3C[C@H]5CC[C@H](N5)[C@H]3CC4)c12` [Example 155, 5-ethynyl-6-fluoro-4-((5aR,6S,9R)-1-fluoro-12-(((3S,7aS)-3-(((5-(trifluoromethyl)pyrazin-2-yl)oxy)methyl)tetrahydro-1H-pyrrolizin-7a(5H)-yl)methoxy)-4,5,5a,6,7,8,9,10-octahydro-3,10a,11,13,14-pentaaza-6,9-methanonaphtho[1,8-ab]heptalen-2-yl)naphthalen-2-ol] gave a negative-log IC50 (pIC50) on GDP-loaded KRAS G12D of 10.00. Besides, the pEC50 in the test with AsPC-1 (KRAS G12D) cells (Homo sapiens, ASPC1, 96 h) is 8.28; with GP2D (KRAS G12D) cells (GP2d, 96 h), 9.52.

`C#Cc1c(F)ccc2cc(O)cc(-c3nc4c5c(nc(OC[C@@]67CCCN6[C@H](COc6ncccc6OC(F)(F)F)CC7)nc5c3F)N3C[C@H]5CC[C@H](N5)[C@H]3CC4)c12` [Example 160, 5-ethynyl-6-fluoro-4-((5aR,6S,9R)-1-fluoro-12-(((3S,7aS)-3-(((3-(trifluoromethoxy)pyridin-2-yl)oxy)methyl)tetrahydro-1H-pyrrolizin-7a(5H)-yl)methoxy)-4,5,5a,6,7,8,9,10-octahydro-3,10a,11,13,14-pentaaza-6,9-methanonaphtho[1,8-ab]heptalen-2-yl)naphthalen-2-ol] had a negative-log IC50 (pIC50) at GDP-loaded KRAS G12D of 9.70. The negative-log EC50 (pEC50) in the test on AsPC-1 (KRAS G12D) cells (Homo sapiens, ASPC1, 96 h) is 7.80; in the test with GP2D (KRAS G12D) cells (GP2d, 96 h), 8.85.

`C#Cc1c(F)ccc2cc(O)cc(-c3nc4c5c(nc(OCC6(CN7CCC(OC(F)(F)F)CC7)CC6)nc5c3F)N3C[C@H]5CC[C@H](N5)[C@H]3CCC4)c12` [Example 161, 5-ethynyl-6-fluoro-4-((6aR,7S,10R)-1-fluoro-13-((1-((4-(trifluoromethoxy)piperidin-1-yl)methyl)cyclopropyl)methoxy)-5,6,6a,7,8,9,10,11-octahydro-4H-3,11a,12,14,15-pentaaza-7,10-methanocyclohepta[4,5]cycloocta[1,2,3-de]naphthalen-2-yl)naphthalen-2-ol]: at GDP-loaded KRAS G12D, the pIC50 was 9.52. Further, the pEC50 with AsPC-1 (KRAS G12D) cells (Homo sapiens, ASPC1, 96 h) was 7.64; in the test on GP2D (KRAS G12D) cells (GP2d, 96 h), 9.52.

What is called pIC50 is the IC50 on a negative log10 scale, so that one unit is a factor of ten. The term pEC50 denotes the negative decadic logarithm of the EC50, by convention in mol/L.

The values above are taken from patent US20230339981A1, “KRAS G12D MODULATING COMPOUNDS” (priority 2022, published 2023).
